In data set [1] the test system is rats with partial urethral obstruction. The experiment in a line: Activity to increase the bladder capacity of rats with partial urethral obstruction (intravesical saline infusion). It counts as in vivo, rat. The conditions noted are these: summary of Test Example 2. As to the method: (§1) The experiment was carried out according to the method of Saito, et al. [J. Urol., Vol. 150, pp. 1045-1051 (1993)].
Male SD rats of 8 to 9 weeks of age (supplied by Japan SLC) were used in the test. Five to seven rats were put in each metal cage and reared by allowing them to freely take commercially available chow and water, in an animal room at a room temperature between 19 and 25° C. and humidity between 30 and 70% under illumination for 12 hours (from 7:00 a.m. to 7:00 p.m.) per day.
The rats were subjected to operation of partial urethral obstruction. […]
Five to seven days after the operation of the partial urethral obstruction and the catheter implantation, the rats with partial urethral obstruction and the sham-operated rats were put in Bollman cages (KN-326-1, Natsume Seisakusho Co., Ltd.) under restraint. […] One end of the cock was connected to a pressure transducer (DX-360, Nihon Kohden Corp.), and the intravesical pressure signal was amplified via a strain pressure amplifier (AP-601G, Nihon Kohden Corp.), measured with a polygraph (RMP-6008, Nihon Kohden Corp.) and recorded on a thermal array recorder (RTA-1200, Nihon Kohden Corp.). […] The bladder capacity was calculated from the period of time until occurrence of micturition (infusion rate 6 ml/h×infusion time). […]

Data set [2] has as its system dd male mice. The experiment in a line: Acute toxicity test. It counts as in vivo. The conditions noted are these: oral administration, mortality on the seventh day. On the procedure: The test compound was administered orally or intraperitoneally to animals per group of dd male mice (body weight: 20±1 g). The minimum lethal dose (MLD) value was obtained by observing mortality on the seventh day after the administration.

Data set [3] relates to rats with partial urethral obstruction. Nature of the data set: Inhibitory activity on urinary frequency due to partial urethral obstruction (micturition test in metabolic cages). Type of data set: in vivo, rat. On the procedure:
as §1
Male SD rats of 8 to 9 weeks of age (supplied by Japan SLC) were used in the test. Five to seven animals of these rats were put in each metal cage and reared by allowing them to freely take commercially available chow and water, in an animal room at room temperature between 19 and 25° C. and humidity between 30 and 70% under illumination for 12 hours (from 7:00 a.m. to 7:00 p.m.) per day.
The rats were subjected to operation of partial urethral obstruction. Each rat was anesthetized by intraperitoneal administration of 50 mg/kg pentobarbital sodium (Dainippon Pharmaceutical Co., Ltd.) and placed in the supine position. The abdominal midline incision was made in a length of about 1 cm to expose the bladder, prostate and the urethra. After the bladder neck and base were peeled from the prostate, two surgical suture threads (No. 3, Natsume Seisakusho Co., Ltd.) were passed behind the urethral base. A polyethylene tube (PE-200, Nippon Becton Dickinson Co., Ltd.) was placed along the urethra, and the urethra was loosely double-ligated together with the tube. The ligation was made in such a manner that the urethra was not pressed with the polyethylene tube and the suture was not slack. Then, the polyethylene tube was pulled out and the urethra was partially obstructed. The incised part of abdomen was sutured with a surgical thread.
Five to seven days after the partial urethral obstruction operation, the rats with partial urethral obstruction and the sham-operated rats were put in metabolic cages (KN-649, Natsume Seisakusho Co., Ltd.). For acclimation, the rats were reared for one day with free drinking and feeding, and the micturition test was started the following day. The amount of urination in the rats was continuously measured as the weight using an electronic balance (HF-200, A & D Company Ltd.), and was recorded on a thermal array recorder (RTA-1200, Nihon Kohden Corp.) via a direct current amplifier (AD-601G, Nihon Kohden Corp.). The data were collected during the light period under illumination (9:00-18:00) and the dark period without illumination (19:00-4:00), and the number of micturitions and the micturition volume in each period were measured to calculate the urinary frequency (the number of micturitions per 9 hours), the voided volume per micturition and the total urine volume as the measurement parameters. The voided volume per micturition was calculated by dividing the total urine volume per 9 hours by the urinary frequency per 9 hours. On the next day, a test compound or a vehicle (0.5 w/v% aqueous methylcellulose 400 cP solution) was orally administered twice (between 8:00 and 9:00, and between 18:00 and 19:00). The number of micturitions and the urine volume were measured from 9:00 to 18:00 and from 19:00 to 4:00 in the same manner as on the previous day to obtain the measurement values. The changes in the values of each parameter induced by the administration of the compound were also calculated. In the sham-operated group, the urinary frequency, the voided volume per micturition and the total urine volume obtained on the first day of the micturition test were compared with those in the groups of partial urethral obstruction. The average±standard error of the urinary frequency, voided volume per micturition and the total urine volume was calculated for each group.

[4] abbreviates: Dark period (Active period), after oral administration.
[5] abbreviates: Dark period (Active period), before administration.
Where [6] appears, read: Light period (Inactive period), after oral administration.
[7] abbreviates: Light period (Inactive period), before administration.

As for `C[C@](O)(C(=O)Nc1cccc2c1C(=O)c1sccc1CS2(=O)=O)C(F)(F)F` [Compound 1, (S)-(+)-N-(5,5-dioxido-10-oxo-4,10-dihydrothieno[3,2-c][1]benzothiepin-9-y1)-3,3,3-trifluoro-2-hydroxy-2-methylpropanamide], in data set [1], the “effect on bladder capacity (in words)” value is “tended to increase” and the “effect on micturition volume (in words)” value is given as “significantly increased”. Besides, the “minimum lethal dose (MLD)” value in data set [2] is more than 1000 mg/kg. In data set [3] (setting [4]), this molecule had a Total urine volume of 4.83 ± 0.83 mL/9 hours and a Urinary frequency of 6.7 ± 1.2 micturitions/9 hours. In data set [3] (setting [5]), this molecule returned a Total urine volume of 3.57 ± 0.57 mL/9 hours and a Urinary frequency of 10.0 ± 1.3 micturitions/9 hours. In data set [3] (setting [6]), the Total urine volume turned out to be 4.76 ± 0.78 mL/9 hours and the Urinary frequency came out at 5.3 ± 0.4 micturitions/9 hours. Besides, in data set [3] (setting [7]), the Total urine volume is recorded as 4.80 ± 0.31 mL/9 hours and the Urinary frequency came out at 8.7 ± 0.8 micturitions/9 hours. In data set [3] (summary of Test Example 1), the “effect on urinary frequency (in words)” value was “significantly decreased” and the “effect on voided volume per micturition (in words)” value is “tended to increase”.

These data come from patent US7354949B2, “Therapeutic agent for bladder irritative symptoms associated with benign prostatic hyperplasia” (Kyowa Hakko Kogyo Co., Ltd., priority 2001, dated 2008).
